Measurements taken from patent publication US9394286B2, “Rock inhibitors” (Amakem NV, priority 2012, dated 2016).
Where a name gives a salt, the structure may show the parent alone.

Assays:
[1] = Stability assay in rabbit aqueous humor; type: in vitro ADME; conditions: 1 μM compound in rabbit aqueous humor, LC-MS/MS; read-out: t½ AH
Protocol: Compounds are incubated at a concentration of 1 μM in rabbit aqueous humor (AH). Samples are taken at fixed time points and the remnant of compound is determined by LC-MS/MS after protein precipitation. Half life is expressed in minutes.

ROCK2 = ROCK2 (Homo sapiens, UniProt O75116); assay: Kinase inhibition (ROCKI & ROCKII), radiometric 33P-ATP assay; type: biochemical; conditions: ROCK 1 nM, 120 min at room temperature
Protocol: On-target activity against ROCK was measured in a biochemical assay, using the following reagents: Base Reaction buffer; 20 mM Hepes (pH 7.5), 10 mM MgCl2, 1 mM EGTA, 0.02% Brij35, 0.02 mg/ml BSA, 0.1 mM Na3VO4, 2 mM DTT, 1% DMSO. Required cofactors are added individually to each kinase reaction. The reaction procedure first involved the preparation of a peptide substrate in a freshly prepared reaction buffer. Required cofactors were then added to the substrate solution. ROCK (1 nM final concentration) was then delivered to the substrate solution. After gentle mix, DMSO solutions of the test compounds were added to the enzyme. Substrate mix ^33P-ATP (specific activity 0.01 μCi/μl final) was then delivered into the reaction mixture to initiate the reaction. The kinase reaction was incubated for 120 min. at room temperature. Reactions were then spotted onto P81 ion exchange paper (Whatman #3698-915). Filters were washed extensively in 0.1% Phosphoric acid. A radiometric count was then performed and IC50 values were subsequently determined.
The IC50 values obtained (in accordance with the protocol set forth above) are represented as follows: “+++” means IC50 below 0.1 μM, “++” means IC50 between 0.1 μM and 1 μM; “+” means IC50 between 1 and 10 μM and “ND” means “not determined yet”.

[2] = tested on: MLC-T18/S19 phosphorylation; assay: Myosin light chain phosphorylation assay (ELISA) in A7r5 cells; type: cell-based, Rat; conditions: for EC50: Rattus norvegicus, MLC-T18/S19 phosphorylation, A7r5 cells, serum-free medium
Protocol: Rat smooth muscle cell line A7r5 is used. The endogenous expression of ROCK results in a constitutive phosphorylation of the regulatory myosin light chain at T18/S19. A7r5 cells were plated in DMEM supplemented with 10% FCS in multiwall cell culture plates. After serum starvation overnight, cells were incubated with compounds in serum-free medium.
Quantification of MLC-T18/S19 phosphorylation is assesses in 96 well-plates via ELISA using a phspho-MLC-T18/S19 specific antibody and a secondary detection antibody. Relative MLC phosphorylation is measured with respect to untreated cells (Positive control, 1.0) and cells treated with 100 μM Y-27632 (Negative control, 0.0). EC50 values were determined using GraphPad Prism 5.01 software using a nonlinear regression curve fit with variable hill slope.
The […] values obtained (in accordance with the protocols set forth above) are represented as follows: “+++” means EC50 below 0.3 μM, “++” means EC50 between 0.3 μM and 1 μM; “+” means EC50 between 1 and 10 μM and “−” means EC50>10 μM.

[3] = Stability assay in human plasma; type: in vitro ADME; conditions: 1 μM compound, LC-MS/MS, read-out: t½ human plasma
Protocol: (§1) Compounds are incubated at a concentration of 1 μM in human or animal (rat, mice or rabbit) […] or whole blood. Samples are taken at fixed time points and the remnant of compound is determined by LC-MS/MS after protein precipitation. Half life is expressed in minutes.

[4] = Stability assay in human whole blood; type: in vitro ADME; conditions: 1 μM compound, LC-MS/MS, read-out: t½ human whole blood
Protocol: as §1

Chain of ROCK2 (O75116 whole entry, species assumed): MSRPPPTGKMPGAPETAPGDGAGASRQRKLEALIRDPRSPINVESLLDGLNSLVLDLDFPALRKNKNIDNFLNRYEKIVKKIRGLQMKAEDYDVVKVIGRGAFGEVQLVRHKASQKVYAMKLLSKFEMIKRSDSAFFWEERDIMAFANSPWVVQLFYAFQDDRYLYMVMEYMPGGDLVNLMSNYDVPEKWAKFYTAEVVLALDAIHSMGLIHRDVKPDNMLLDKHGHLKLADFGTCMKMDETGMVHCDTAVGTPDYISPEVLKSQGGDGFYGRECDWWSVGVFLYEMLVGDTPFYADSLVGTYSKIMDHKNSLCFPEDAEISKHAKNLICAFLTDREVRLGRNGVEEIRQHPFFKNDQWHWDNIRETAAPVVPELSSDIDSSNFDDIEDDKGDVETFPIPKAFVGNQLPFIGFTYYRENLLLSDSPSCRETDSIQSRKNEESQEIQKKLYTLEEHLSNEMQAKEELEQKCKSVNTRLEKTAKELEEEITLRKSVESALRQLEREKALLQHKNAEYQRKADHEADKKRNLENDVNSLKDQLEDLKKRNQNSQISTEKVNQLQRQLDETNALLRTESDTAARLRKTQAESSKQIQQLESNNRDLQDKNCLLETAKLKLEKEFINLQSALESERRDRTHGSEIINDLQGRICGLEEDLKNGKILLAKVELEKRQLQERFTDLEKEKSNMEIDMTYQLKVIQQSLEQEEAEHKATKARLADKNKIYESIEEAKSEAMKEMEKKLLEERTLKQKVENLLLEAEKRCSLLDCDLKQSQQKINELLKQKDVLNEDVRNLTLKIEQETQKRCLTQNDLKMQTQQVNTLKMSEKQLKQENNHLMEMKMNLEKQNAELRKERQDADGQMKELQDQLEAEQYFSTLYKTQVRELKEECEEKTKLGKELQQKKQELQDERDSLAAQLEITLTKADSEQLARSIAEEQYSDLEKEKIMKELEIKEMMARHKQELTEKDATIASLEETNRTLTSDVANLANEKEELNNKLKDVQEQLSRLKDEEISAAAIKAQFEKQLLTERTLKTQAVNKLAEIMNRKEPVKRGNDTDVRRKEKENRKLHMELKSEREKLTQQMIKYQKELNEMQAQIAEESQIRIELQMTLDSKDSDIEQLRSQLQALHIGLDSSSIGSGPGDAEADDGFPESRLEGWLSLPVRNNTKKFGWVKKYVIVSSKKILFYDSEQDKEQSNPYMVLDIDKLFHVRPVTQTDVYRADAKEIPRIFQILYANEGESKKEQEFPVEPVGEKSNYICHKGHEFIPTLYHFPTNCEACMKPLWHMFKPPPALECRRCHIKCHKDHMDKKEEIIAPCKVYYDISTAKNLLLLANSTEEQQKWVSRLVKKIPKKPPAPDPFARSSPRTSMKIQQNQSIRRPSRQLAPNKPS

SMILES | half-life at 1 μM [1] [min] | IC50 (ROCK2) [µM] | EC50 [2] [µM] | half-life at 1 μM [3] [min] | half-life at 1 μM [4] [min] | difference in EC50 values between compound 32 and its metabolite Met1 ([2]; MLC phosphorylation assay, FIG. 1, Met1 versus parent compound 32) [fold]
COC(=O)c1cccc(C(=O)Nc2cccc(CN3CCC(Nc4cccc5cnccc45)C3)c2)c1 (stereo not shown) [Compound 1, Methyl 3-((3-((3-(isoquinolin-5-ylamino)pyrrolidin-1-yl)methyl)phenyl)carbamoyl)benzoate] | > 120 | < 0.1 | < 0.3 | – | – | –
COC(=O)c1ccc(C(=O)Nc2cccc(CN3CCC(Nc4cccc5cnccc45)C3)c2)cc1 (stereo not shown) [Compound 2, Methyl 4-((3-((3-(isoquinolin-5-ylamino)pyrrolidin-1-yl)methyl)phenyl)carbamoyl)benzoate] | – | < 0.1 | < 0.3 | – | – | –
COC(=O)c1cccc(C(=O)Nc2cc(CN3CCCC(Nc4ccc5[nH]ncc5c4)C3)ccc2C)c1 (stereo not shown) [Compound 3, Methyl 3-((5-((3-((1H-indazol-5-yl)amino)piperidin-1-yl)methyl)-2-methylphenyl)carbamoyl)benzoate dihydrochloride] | > 120 | – | – | 33 | – | –
COC(=O)c1cccc(C(=O)Nc2cc(CN3CCC(Nc4cccc5cnccc45)C3)ccc2C)c1 (stereo not shown) [Compound 7] | > 120 | – | – | 31 | – | –
COC(=O)c1ccc(C(=O)Nc2cc(CN3CCCC(Nc4ccc5[nH]ncc5c4)C3)ccc2C)cc1 (stereo not shown) [Compound 15] | > 120 | – | – | – | – | –
COC(=O)c1cccc(C(=O)Nc2cccc(CNC3CCC(Nc4cccc5cnccc45)CC3)c2)c1 (stereo not shown) [Compound 16] | – | < 0.1 | < 0.3 | < 20 | – | –
COC(=O)c1ccc(C(=O)Nc2cccc(CNC3CCC(Nc4cccc5cnccc45)CC3)c2)cc1 (stereo not shown) [Compound 17] | – | < 0.1 | – | – | – | –
COC(=O)c1cccc(C(=O)Nc2cccc(CN3CCC(Nc4cccc5cnccc45)CC3)c2)c1 [Compound 18] | – | < 0.1 | – | – | – | –
COC(=O)c1ccc(C(=O)Nc2cccc(CN3CCC(Nc4cccc5cnccc45)CC3)c2)cc1 [Compound 19] | – | < 0.1 | – | – | – | –
CCCOC(=O)c1cccc(C(=O)Nc2cccc(CN3CCC(Nc4cccc5cnccc45)C3)c2)c1 (stereo not shown) [Compound 21] | 120 | < 0.1 | < 0.3 | < 20 | < 20 | –
COCCOC(=O)c1cccc(C(=O)Nc2cccc(CN3CCC(Nc4cccc5cnccc45)C3)c2)c1 (stereo not shown) [Compound 22] | > 120 | < 0.1 | < 0.3 | < 20 | < 20 | –
O=C(Nc1cccc(CN2CCC(Nc3cccc4cnccc34)C2)c1)c1cccc(C(=O)OCC2CCCO2)c1 (stereo not shown) [Compound 23] | 77 | < 0.1 | – | < 20 | < 20 | –
CCCOC(=O)c1ccc(C(=O)Nc2cccc(CN3CCC(Nc4cccc5cnccc45)C3)c2)cc1 (stereo not shown) [Compound 24] | – | < 0.1 | < 0.3 | – | – | –
COCCOC(=O)c1ccc(C(=O)Nc2cccc(CN3CCC(Nc4cccc5cnccc45)C3)c2)cc1 (stereo not shown) [Compound 25] | – | < 0.1 | – | – | – | –
O=C(Nc1cccc(CN2CCC(Nc3cccc4cnccc34)C2)c1)c1ccc(C(=O)OCC2CCCO2)cc1 (stereo not shown) [Compound 26] | – | < 0.1 | – | – | – | –
CCCOC(=O)c1cccc(C(=O)Nc2cccc(CNC3CCC(Nc4cccc5cnccc45)CC3)c2)c1 (stereo not shown) [Compound 27] | > 120 | < 0.1 | – | < 20 | – | –
COCCOC(=O)c1cccc(C(=O)Nc2cccc(CNC3CCC(Nc4cccc5cnccc45)CC3)c2)c1 (stereo not shown) [Compound 28] | > 120 | < 0.1 | – | < 20 | – | –
O=C(Nc1cccc(CNC2CCC(Nc3cccc4cnccc34)CC2)c1)c1cccc(C(=O)OCC2CCCO2)c1 (stereo not shown) [Compound 29] | > 120 | < 0.1 | – | < 20 | – | –
CCCOC(=O)c1ccc(C(=O)Nc2cccc(CNC3CCC(Nc4cccc5cnccc45)CC3)c2)cc1 (stereo not shown) [Compound 30] | – | < 0.1 | – | – | – | –
COCCOC(=O)c1ccc(C(=O)Nc2cccc(CNC3CCC(Nc4cccc5cnccc45)CC3)c2)cc1 (stereo not shown) [Compound 31] | – | < 0.1 | – | – | – | –
O=C(Nc1cccc(CNC2CCC(Nc3cccc4cnccc34)CC2)c1)c1ccc(C(=O)OCC2CCCO2)cc1 (stereo not shown) [Compound 32] | – | < 0.1 | 0.3 to 1 | 20 | – | –
CCCOC(=O)c1cccc(C(=O)Nc2cccc(CN3CCC(Nc4cccc5cnccc45)CC3)c2)c1 [Compound 33] | > 120 | < 0.1 | – | < 20 | – | –
COCCOC(=O)c1cccc(C(=O)Nc2cccc(CN3CCC(Nc4cccc5cnccc45)CC3)c2)c1 [Compound 34] | > 120 | < 0.1 | 0.3 to 1 | < 20 | – | –
O=C(Nc1cccc(CN2CCC(Nc3cccc4cnccc34)CC2)c1)c1cccc(C(=O)OCC2CCCO2)c1 (stereo not shown) [Compound 35] | > 120 | < 0.1 | – | < 20 | – | –
CCCOC(=O)c1ccc(C(=O)Nc2cccc(CN3CCC(Nc4cccc5cnccc45)CC3)c2)cc1 [Compound 36] | – | < 0.1 | – | – | – | –
COCCOC(=O)c1ccc(C(=O)Nc2cccc(CN3CCC(Nc4cccc5cnccc45)CC3)c2)cc1 [Compound 37] | – | < 0.1 | – | – | – | –
O=C(Nc1cccc(CN2CCC(Nc3cccc4cnccc34)CC2)c1)c1ccc(C(=O)OCC2CCCO2)cc1 (stereo not shown) [Compound 38] | – | < 0.1 | – | – | – | –
C[C@@H](N)[C@H]1CC[C@H](C(=O)Nc2ccncc2)CC1 [Compound Y-27632, Y-27632, reference compound] | – | – | 0.3 to 1 | – | – | –
O=S(=O)(c1cccc2cnccc12)N1CCCNCC1 [Fasudil, reference compound] | – | – | 1 to 10 | – | – | –
O=C(O)c1ccc(C(=O)Nc2cccc(CNC3CCC(Nc4cccc5cnccc45)CC3)c2)cc1 (stereo not shown) [Met1] | – | – | – | – | – | > 20
